Experimental data: patent US8124356B2, “Methods of purifying zsig33” (ZymoGenetics, Inc., priority 1999, dated 2012)

Tests used:
[1] = system: antral portion of the stomach; test: Effects on gastrointestinal contractility (transducing crystals on antral portion of the stomach); type: in vivo, Sprague-Dawley rats
Protocol: Two male Sprague-Dawley rats, approximately 12 weeks old (Harlan, Indianapolis, Ind.) were anesthetized with urethane and their stomachs were exposed through a small abdominal incision. Two 2.4 mm transducing crystals (Sonometrics, Ontario, Canada) were placed on the antral portion of the stomach such that circular contractions could be monitored as a change in the distance between the two crystals. The crystals were attached with VETBOND TISSUE ADHESIVE (3M, St. Paul, Minn.).
10 ml of norepinephrine (NE) at 1 mM caused a reduction in the distance between the two crystals. The amplitude of the NE-induced decrease was approximately 50% of the acetylcholine-induced increase in distance. Both responses were transient.
A negative control of 10 ml of phosphate buffer solution (PBS) applied topically between the crystals had no effect.
A 14 amino acid zsig33 peptide (zsig33-1, as shown in Example 4) was dissolved in PBS and 10 ml was applied topically for a final concentration of 1 mg, 10 mg or 100 mg.

[2] = system: stomachs of fasted male Sprague-Dawley rats; test: Effects on gastric emptying (transit of phenol red through the stomach); type: in vivo; details: 1 μg applied topically to the stomach five minutes after gavage, measured 30 minutes after the gavage
Protocol: The effect of topically applied zsig33 peptide (amino acid 24 to 37 of SEQ ID NO: 2) on the transit of phenol red through the stomachs of fasted male Sprague-Dawley rats (Harlan, Indianapolis, Ind.) was evaluated. The rats (6 animals, 8 weeks old) were fasted 24 hrs prior to being anesthetized with urethane (0.5 ml/100 grams of 25% solution). After anesthetizing, the animals were orally gavaged with 1 ml of Phenol Red solution (50 mg/ml in 2% methylcellulose solution).
The stomach of each animal was exposed through a small abdominal incision and either 1 μg zsig33 peptide or a 14 amino acid control of a scrambled sequence peptide was applied topically to the stomach five minutes following the gavage. The amount of Phenol Red remaining in the stomach was determined by measuring optical density of the extracted stomach contents 30 minutes after the gavage.

[3] = system: duodenum, jejunum, kidney and other harvested tissues; test: Binding studies of FITC-labeled zsig33 peptides in situ (tail vein injection, fluorescent microscopy of tissue sections); type: in vivo, Balb C male mice; details: FITC-labeled peptide, 0.5 ml (0.5 mg) tail vein, circulated 15 minutes, microscopy at 495 nm
Protocol: Ten week old Balb C male mice were anesthetized via intramuscular injection and tested for binding of zsig33 peptides in vivo.
Two peptides were tested: the first peptide, zsig33-1, (See Example 4) consisted of residues 24 to 37 of SEQ ID NO:2, and the second peptide, zsig33-2, consisted of residues 24 to 41 of SEQ ID NO:2. A single glycine was used as a negative control. Additionally, a “scrambled” negative control consisting of residues the first peptide which had been rearranged (SEQ ID NO:15) was also tested. The peptides and controls were coupled to fluorescein isothiocyantate (FITC, Molecular Probes, Eugene, Oreg.) in the following manner: The peptides, glycine control and FITC were dissolved in 0.1 M sodium bicarbonate at pH 9.0 to a concentration of 2.0 mg/ml for the peptides and glycine control and 5 mg/ml for FITC, avoiding exposure of the FITC to strong light. […] The buffer was changed daily and unbound FITC in the post-dialyzed buffer was measured by HPLC. […] Peptide- or glycine-bound FITC was determined by measuring the absorbance of the dialyzed FITC-bound material at 498 nm and dividing by the extinction coefficient of fluorescein, […]. The molar ratio of fluorescein to peptide (mole FITC/mole peptide) was then determined. […]

[4] = Effects on body weight, food intake and glucose clearance; type: in vivo, ob/ob mice; details: 1 mg/mouse orally twice daily for fourteen days, versus scrambled peptide
Protocol: Sixteen female ob/ob mice, 8 weeks old, (Jackson Labs, Bar Harbor, Me.) were adapted to a special 4 hour daily feeding schedule for two weeks. The were fed ad libitum from 7:30-11:30 am daily. After two weeks on the feeding schedule, the mice were divided into two groups of 8. One group was given 1.0 mg/mouse of zsig33-1 (14 amino acid peptide) and the other vehicle (a 14 amino acid scrambled sequence peptide) in […] sterile 0.1% BSQA by oral gavage just prior to receiving food, and at the end of the 4 hour feeding period. The mice were […] twice daily for fourteen days, during which time food intake and body weight was measured daily. On day 14, immediately after the second oral gavage of the zsig33-1 peptide, the mice were challenged orally with an 0.5 ml volume of 25% glucose. Retro-orbital bleeds were done to determine serum glucose levels immediately prior to administration of the zsig33-1 peptide or vehicle (t=30 min.), and also at 0, 1, 2, and 4 hours following the glucose challenge.

[5] = Effects on glucose absorption after oral glucose challenge; type: in vivo, ob/ob mice; details: 100 mg orally, 30 minutes prior to an oral glucose challenge (0.5 ml of 25% glucose), serum glucose
Protocol: Eight female ob/ob mice, approximately 6 weeks old (Jackson Labs, Bar Harbor, Me.) were adapted to a 4 hour daily feeding schedule for two weeks. After two weeks on the feeding schedule, the mice were given 100 mg of a zsig33 peptide (zsig33-1, as shown in Example 4) in 100 ml sterile 0.1% BSA by oral gavage, immediately after their eating period (post-prandially). Thirty minutes later, the mice were challenged orally with a 0.5 ml volume of 25% glucose. Retroorbital bleeds were done to determine serum glucose levels. Blood was drawn prior to zsig33 dosing, prior to oral glucose challenge, and at 1, 2, 4, and 20 hours following the glucose challenge.

## NC[C@H](O)c1ccc(O)c(O)c1 [norepinephrine, reference compound]
[1]; 10 ml of 1 mM applied topically
  amplitude of the NE-induced decrease relative to the acetylcholine-induced increase in distance: approximately 50%
[1]; 10 ml of 1 mM applied topically to the stomach, anesthetized rats
  change in the distance between the two crystals: reduction

## zsig33-1: 14 amino acid peptide corresponding to amino acid residue 24 (Gly) to amino acid residue 37 (Gln) of SEQ ID NO: 2 (GSSFLSPEHQRVQQ; listed as Homo sapiens)
[2]
  reduction of the amount of Phenol Red remaining in the stomach compared to a scrambled peptide: approximately 25%
[3]
  fluorescence in duodenum, jejunum and in the collecting ducts and convoluted tubules of the kidney compared to the glycine and "scrambled" controls: increased fluorescence
[4]
  daily body weight: no affect
  daily food intake: no affect
[1]; 10 ml in PBS applied topically, 1 mg
  change in crystal distance (contractions): sustained, rhythmic increase and decrease in crystal distance
[1]; 10 ml in PBS applied topically, 10 mg and 100 mg, compared with 1 mg
  response in rate and amplitude of the contractions: enhanced responses in both rate and amplitude
[5]
  post-prandial glucose absorption: enhanced post-prandial glucose absorption

## zsig33-2: peptide consisting of residues 24 to 41 of SEQ ID NO:2 (GSSFLSPEHQRVQQRKES; listed as Homo sapiens)
[3]
  fluorescence in duodenum, jejunum and in the collecting ducts and convoluted tubules of the kidney compared to the glycine and "scrambled" controls: increased fluorescence
